In patent publication US20100221200A1, “COMPOSITIONS AND METHODS FOR SKIN CARE” (THE OHIO STATE UNIVERSITY RESEARCH FOUNDATION, priority 2007, published 2010):
Square brackets hold non-standard residues; d marks the D form. Peptide text beside a SMILES is read from it.

Tests used:
[1] = test system: isolated or transplanted organs including heart, lung and kidneys; settings: cited from earlier work
[2] = test system: summer-active ground squirrels; settings: administered to summer-active ground squirrels; cited from earlier work
[3] = test system: skin of the malar surface of the face; experiment: Blinded split-face topical application of deltorphin cream: skin appearance and wrinkles; format: in vivo
Procedure: (§1) A test subject (body weight ˜71 kg) received an application of 10 μg deltorphin, constituted in an inert base, to the malar surface on the left side of the face extending from the periorbital region to the mandible. The inert base (without the deltorphin) was applied to the right side of the face but the subject was blind to which cream contained the deltorphin. The cream was applied twice daily, in the morning and night. After 3 weeks, the subject was observed.
A test subject (˜55 kg) received an application of 1 μg of deltorphin in an inert base to the malar surface of the right side of the face, with an identical inert cream applied to the left in a blinded fashion (the subject was unaware of which cream contained the active peptide). After three weeks of morning and evening application of the cream (no other topical agents were applied), the subject was scored for appearance.
(§2) A test subject (˜61 kg) received an application of 100 μg of deltorphin in an inert base to the malar surface on the right side, with an equal amount of inert base, but no active peptide, applied blindly to the left side of the face. The two creams were applied twice daily, morning and night, for three weeks prior to being observed.

[4] = test system: skin of the malar surface of the face; experiment: Blinded split-face topical application of deltorphin cream: local tolerance (irritation, allergy); format: in vivo
Procedure: as §1, §2

[5] = Example 1: subject, 10 μg deltorphin in inert base, twice daily, 3 weeks
[6] = Example 3: subject, 100 μg deltorphin in inert base, twice daily, three weeks

Structure (SMILES): CC(C)C[C@@H](NC(=O)[C@H](Cc1ccccc1)NC(=O)CNC(=O)[C@@H](C)NC(=O)[C@@H](N)Cc1ccc(O)cc1)C(=O)O [DADLE, Tyr-D-Ala-Gly-Phe-D-Leu]
- viability and preservation of organs [1]: improves the viability and preservation
- induction of hibernation [2]: induces hibernation

Structure (SMILES): CSCC[C@H](NC(=O)[C@H](CC(C)C)NC(=O)[C@H](Cc1c[nH]cn1)NC(=O)[C@H](Cc1ccccc1)NC(=O)[C@@H](CCSC)NC(=O)[C@@H](N)Cc1ccc(O)cc1)C(=O)N[C@@H](CC(=O)O)C(N)=O [deltorphin, Tyr-D-Met-Phe-His-Leu-Met-Asp-NH2] (H-Y[dM]FHLMD-NH2)
- appearance of treated side of the face versus inert-base side ([3]; Example 1: subject, 10 μg deltorphin in inert base, left side, twice daily, 3 weeks): noticeable improved appearance
- wrinkles (fine and moderate) [3, 5]: appeared diminished
- wrinkles, particularly in the periorbital region ([3]; Example 2: subject, 1 μg deltorphin in inert base, morning and evening, three weeks): marked reduction in wrinkles
- appearance of treated side of the face versus inert-base side ([3]; Example 2: subject, 1 μg deltorphin in inert base, right side, morning and evening, three weeks): noticeable difference was apparent
- appearance of treated side of the face versus inert-base side ([3]; Example 3: subject, 100 μg deltorphin in inert base, right side, twice daily, three weeks): significant and visible improvements
- wrinkles (fine and deep) [3, 6]: readily notable improvements and diminishment in wrinkles

Structure (SMILES): CSCC[C@H](NC(=O)[C@H](CC(C)C)NC(=O)[C@H](Cc1cnc[nH]1)NC(=O)[C@H](Cc1ccccc1)NC(=O)[C@@H](CCSC)NC(=O)[C@@H](N)Cc1ccc(O)cc1)C(=O)N[C@@H](CC(=O)O)C(N)=O [deltorphin, Tyr-D-Met-Phe-His-Leu-Met-Asp-NH2] (H-Y[dM]FHLMD-NH2)
- signs of irritation, redness, heat or swelling [4, 5]: no sign of any irritation, no redness, heat or swelling
- eye irritation after inadvertent contact of the cream with the eye ([4]; Example 3: subject, 100 μg deltorphin cream, one occasion, subject's report): without any significant eye irritation or redness
- signs of allergy, hypersensitivity or irritation (redness, swelling, heat, pruritus) [4, 6]: no signs of any allergy, hypersensitivity or irritation
